Source: US20200317642A1, “AMINE-SUBSTITUTED HETEROCYCLIC COMPOUNDS AS EHMT2 INHIBITORS AND DERIVATIVES THEREOF” (Epizyme, Inc., priority 2017, published 2020)

These molecules were tested against T1, EHMT1 (Homo sapiens, UniProt Q9H9B1) (assay: EHMT1 PEP enzyme assay). Conditions: Table 3; read-out: EHMT1 PEP (IC50 μM).
T1 sequence (Q9H9B1 1-1298): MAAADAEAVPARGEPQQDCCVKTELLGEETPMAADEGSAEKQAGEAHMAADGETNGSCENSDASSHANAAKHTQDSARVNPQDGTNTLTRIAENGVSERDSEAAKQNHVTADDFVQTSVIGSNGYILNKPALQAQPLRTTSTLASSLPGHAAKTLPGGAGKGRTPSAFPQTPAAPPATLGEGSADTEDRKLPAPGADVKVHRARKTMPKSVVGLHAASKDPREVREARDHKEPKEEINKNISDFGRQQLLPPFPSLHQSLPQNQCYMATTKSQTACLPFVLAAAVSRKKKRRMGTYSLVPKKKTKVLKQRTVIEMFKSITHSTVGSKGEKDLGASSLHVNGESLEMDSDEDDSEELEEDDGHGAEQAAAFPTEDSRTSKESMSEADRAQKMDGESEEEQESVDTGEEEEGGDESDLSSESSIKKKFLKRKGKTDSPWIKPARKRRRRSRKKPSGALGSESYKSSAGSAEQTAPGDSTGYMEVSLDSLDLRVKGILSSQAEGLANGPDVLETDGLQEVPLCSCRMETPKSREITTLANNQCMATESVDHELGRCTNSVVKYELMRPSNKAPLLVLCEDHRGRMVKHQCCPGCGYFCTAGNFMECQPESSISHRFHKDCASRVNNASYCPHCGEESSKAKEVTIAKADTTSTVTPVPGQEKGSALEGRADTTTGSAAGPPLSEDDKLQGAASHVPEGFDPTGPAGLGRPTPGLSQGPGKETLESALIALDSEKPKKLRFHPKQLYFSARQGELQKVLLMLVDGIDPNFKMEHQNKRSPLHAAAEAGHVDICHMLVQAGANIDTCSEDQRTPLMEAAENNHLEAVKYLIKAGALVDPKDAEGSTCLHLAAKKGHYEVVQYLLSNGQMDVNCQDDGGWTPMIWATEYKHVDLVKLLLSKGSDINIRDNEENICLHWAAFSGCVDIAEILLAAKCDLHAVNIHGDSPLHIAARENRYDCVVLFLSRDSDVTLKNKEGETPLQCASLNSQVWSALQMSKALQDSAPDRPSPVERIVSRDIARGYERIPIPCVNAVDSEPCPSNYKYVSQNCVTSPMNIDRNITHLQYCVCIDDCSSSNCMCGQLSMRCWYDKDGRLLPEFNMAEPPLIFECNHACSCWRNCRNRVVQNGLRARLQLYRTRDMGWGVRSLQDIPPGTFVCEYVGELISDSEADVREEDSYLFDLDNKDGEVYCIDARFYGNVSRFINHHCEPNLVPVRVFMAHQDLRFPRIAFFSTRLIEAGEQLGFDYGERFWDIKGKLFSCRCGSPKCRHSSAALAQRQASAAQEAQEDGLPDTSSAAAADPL
Type: biochemical

| Structure (SMILES) | IC50 [µM] |
| --- | --- |
| CNc1cc(C)nc(Nc2ccc(Cl)c(C(=O)Nc3cccnn3)c2)n1 [Compound 5] | 1 to 10 |
| CNc1cc(C)nc(Nc2ccc(OC)c(OC[C@H](O)CN3CC4(CC4)C3)c2)n1 [Compound 41] | > 10 |

Other lines, results leading:

| IC50 [µM] | Structure (SMILES) |
| --- | --- |
| 0.1 to 1 | CNc1cc(C)nc(Nc2ccc(OC)c(CNCCN3CC[C@H](C)C3)c2)n1 [Compound 39] |
| 0.1 to 1 | CNc1cc(C)nc(Nc2ccc(OC)c(C#CCNCCN(C)C)c2)n1 [Compound 49] |
| > 10 | CNc1cc(C)nc(Nc2ccc(OC)c(CNC[C@H](C)N3CCCC3)c2)n1 [Compound 43] |
| 1 to 10 | CNc1cc(C)nc(Nc2ccc(C)c(C(=O)Nc3cc(C#N)ccn3)c2)n1 [Compound 30] |
| > 10 | CNc1cc(C)nc(Nc2ccc(Cl)c(C(=O)Nc3cn(C)cn3)c2)n1 [Compound 15] |

Same assay, conditions: Table 3A; read-out: EHMT1 (IC50 μM)

| Structure (SMILES) | IC50 [µM] |
| --- | --- |
| CNCc1cnn(-c2c(OC)ccc(Nc3nc(NC)cc(C(C)C)n3)c2F)c1 [Compound A8, N^2-(2-fluoro-4-methoxy-3-[4-[(methylamino)methyl]-1H-pyrazol-1-yl]phenyl)-N^4-methyl-6-(propan-2-yl)pyrimidine-2,4-diamine] | < 0.01 |
| CNCc1cn(-c2c(Cl)ccc(Nc3nc(C)cc(NC)n3)c2Cl)nn1 [Compound A13, N2-(2,4-dichloro-3-(4-((methylamino)methyl)-1H-1,2,3-triazol-1-yl)phenyl)-N4,6-dimethylpyrimidine-2,4-diamine] | < 0.01 |
| CNC1=Nc2cc(-c3cc4n(n3)CCNC4)c(Cl)cc2C12CCC2 [Compound A10, 5′-chloro-N-methyl-6′-(4,5,6,7-tetrahydropyrazolo[1,5-a]pyrazin-2-yl)spiro[cyclobutane-1,3′-indol]-2′-amine] | 0.01 to 0.1 |

Results, then the molecule that gave them:

| IC50 [µM] | Structure (SMILES) |
| --- | --- |
| < 0.01 | CNc1cc(C)nc(Nc2ccc(OC)c(-n3cc([C@H]4CCCN4)nn3)c2F)n1 [Compound A4R] |
| < 0.01 | CNc1cc(C)nc(Nc2ccc(OC)c(-n3cc(C4CCCN4)nn3)c2F)n1 (stereo not drawn) [Compound A4] |
